Experiment [1] is described as follows: Vasodilatory activity in rabbit coronary artery assessed as inhibition of KCl-induced contraction. The format is functional, tissue-based, Oryctolagus cuniculus.
In another experiment the test system is L1210. The experiment can be described thus: Cytotoxicity against mouse L1210 cells. The class given is functional, cell-based.
The next experiment deals with L5178Y. The experiment can be described thus: Cytotoxicity against mouse L5178Y cells. The class given is functional, cell-based.

Values after ≈ are worked out from the molar mass of the structure shown.

In the case of `C=C1[C@H](C)CCC[C@]1(C)CC/C(C)=C/CC1=C(O)C(=O)C=C(OC)C1=O` [METACHROMIN A], the IC50 in experiment [1] was found to be 3000 nM.
The same measure, in the same setting: under `C=C1[C@H](C)CCC[C@]1(C)CC[C@@]1(C)C=Cc2c(O)c(OC)cc(OC)c2O1` [METACHROMIN B] stands 3000 nM.
As to `COC1=CC(=O)C(O)=C(C/C=C(\C)CC[C@@]2(C)CCC=C(C)[C@H]2C)C1=O` [METACHROMIN C], the IC50 in the experiment with L1210 amounted to 2 µg/mL (≈ 5.58 µM); in the experiment on L5178Y it was 0.92 µg/mL (≈ 2.57 µM); in experiment [1] it was 3000 nM.

In general, IC50 refers to the concentration needed to halve the response being measured.

The values above are taken from ChEMBL document CHEMBL1147317, “Metachromin C, a new cytotoxic sesquiterpenoid from the Okinawan marine sponge Hippospongia metachromia” (J Nat Prod, 1989).
